PubChem BioAssay AID434974 (The Scripps Research Institute Molecular Screening Center, 2010)
Calls of active or inactive are those of the source. No rule for the calls is given here.

Assays:
Test in all cases: receptor and transporter displacement selectivity profile – biochemical, radioligand binding, PDSP, selectivity assay for NOX1 inhibitor project, profiling panel (AID 434974)
Sigma receptor 1 = details: at 10 µM, hits give high values
GABA receptor PBR = details: at 10 µM, hits give high values
Nicotinic receptor A2B2 = details: at 10 µM, hits give high values
Dopamine receptor D2 = details: at 10 µM, hits give high values
[1] = biological target: Alpha-2B adrenergic receptor (Homo sapiens) (UniProt P18089); details: Adrenergic receptor Alpha2B, at 10 µM, hits give high values
[2] = system: Biogenic amine transporter NET; details: at 10 µM, hits give high values
[3] = biological target: Muscarinic acetylcholine receptor M2 (Homo sapiens) (UniProt P08172); details: at 10 µM, hits give high values
Serotonin receptor 5ht5a = details: at 10 µM, hits give high values
[4] = biological target: D(3) dopamine receptor (Homo sapiens) (UniProt P35462); details: Dopamine receptor D3, at 10 µM, hits give high values
GABA receptor GABAa = details: at 10 µM, hits give high values
[5] = biological target: D(1B) dopamine receptor (Homo sapiens) (UniProt P21918); details: Dopamine receptor D5, at 10 µM, hits give high values
Nicotinic receptor A4B4 = details: at 10 µM, hits give high values
Vasopressin receptor V1A = details: at 10 µM, hits give high values
Nicotinic receptor A3B4 = details: at 10 µM, hits give high values
Serotonin receptor 5ht2a = details: at 10 µM, hits give high values
[6] = system: Prostaglandin receptor EP4; details: at 10 µM, hits give high values
[7] = system: Prostaglandin receptor EP3; details: at 10 µM, hits give high values
[8] = biological target: Beta-2 adrenergic receptor (Homo sapiens) (UniProt P07550); details: Adrenergic receptor Beta2, at 10 µM, hits give high values
Serotonin receptor 5ht1b = details: at 10 µM, hits give high values
Histamine receptor H3 = details: at 10 µM, hits give high values
[9] = system: Adrenergic receptor Alpha1D; details: at 10 µM, hits give high values
[10] = biological target: Muscarinic acetylcholine receptor M3 (Homo sapiens) (UniProt P20309); details: at 10 µM, hits give high values
[11] = system: Biogenic amine transporter SERT; details: at 10 µM, hits give high values
[12] = biological target: Muscarinic acetylcholine receptor M1 (Homo sapiens) (UniProt P11229); details: at 10 µM, hits give high values
BZP Rat Brain Site = details: at 10 µM, hits give high values
Serotonin receptor 5ht1a = details: at 10 µM, hits give high values
Muscarinic receptor M5 = details: at 10 µM, hits give high values
Nicotinic receptor A4B2 = details: at 10 µM, hits give high values
Opioid receptor MOR = details: at 10 µM, hits give high values
[13] = system: Adrenergic receptor Alpha1B; details: at 10 µM, hits give high values
Cannabinoid receptor CB1 = details: at 10 µM, hits give high values
[14] = biological target: Oxytocin receptor (Homo sapiens) (UniProt P30559); details: at 10 µM, hits give high values
Serotonin receptor 5ht1e = details: at 10 µM, hits give high values
Vasopressin receptor V2 = details: at 10 µM, hits give high values
Nicotinic receptor A3B2 = details: at 10 µM, hits give high values
Nicotinic receptor A2B4 = details: at 10 µM, hits give high values
Dopamine receptor D4 = details: at 10 µM, hits give high values
Sigma receptor 2 = details: at 10 µM, hits give high values
Serotonin receptor 5ht7 = details: at 10 µM, hits give high values
Histamine receptor H1 = details: at 10 µM, hits give high values
Serotonin receptor 5ht3 = details: at 10 µM, hits give high values
[15] = biological target: 5-hydroxytryptamine receptor 2B (Homo sapiens) (UniProt P41595); details: Serotonin receptor 5ht2b, at 10 µM, hits give high values
Histamine receptor H2 = details: at 10 µM, hits give high values
[16] = system: Adrenergic receptor Alpha1A; details: at 10 µM, hits give high values
Serotonin receptor 5ht1d = details: at 10 µM, hits give high values
Serotonin receptor 5ht2c = details: at 10 µM, hits give high values
Muscarinic receptor M4 = details: at 10 µM, hits give high values
[17] = biological target: Alpha-2A adrenergic receptor (Homo sapiens) (UniProt P08913); details: Adrenergic receptor Alpha2A, at 10 µM, hits give high values
[18] = system: Glutamate receptor NMDA PCP site; details: at 10 µM, hits give high values
Ca+ Channel = details: at 10 µM, hits give high values
[19] = biological target: Kappa-type opioid receptor (Homo sapiens) (UniProt P41145); details: Opioid receptor KOR, at 10 µM, hits give high values
[20] = biological target: Cannabinoid receptor 2 (Homo sapiens) (UniProt P34972); details: Cannabinoid receptor CB2, at 10 µM, hits give high values
[21] = system: Biogenic amine transporter DAT; details: at 10 µM, hits give high values
Serotonin receptor 5ht6 = details: at 10 µM, hits give high values
[22] = biological target: Alpha-2C adrenergic receptor (Homo sapiens) (UniProt P18825); details: Adrenergic receptor Alpha2C, at 10 µM, hits give high values
[23] = biological target: D(1A) dopamine receptor (Homo sapiens) (UniProt P21728); details: Dopamine receptor D1, at 10 µM, hits give high values
GABA receptor GABAa a1 = details: at 10 µM, hits give high values
[24] = biological target: Delta-type opioid receptor (Homo sapiens) (UniProt P41143); details: Opioid receptor DOR, at 10 µM, hits give high values
[25] = system: Adrenergic receptor Beta3; details: at 10 µM, hits give high values
Histamine receptor H4 = details: at 10 µM, hits give high values
Vasopressin receptor V1B = details: at 10 µM, hits give high values
[26] = system: Adrenergic receptor Beta1; details: at 10 µM, hits give high values

Chain of Muscarinic acetylcholine receptor M2 (Homo sapiens) (P08172 whole entry, looked up): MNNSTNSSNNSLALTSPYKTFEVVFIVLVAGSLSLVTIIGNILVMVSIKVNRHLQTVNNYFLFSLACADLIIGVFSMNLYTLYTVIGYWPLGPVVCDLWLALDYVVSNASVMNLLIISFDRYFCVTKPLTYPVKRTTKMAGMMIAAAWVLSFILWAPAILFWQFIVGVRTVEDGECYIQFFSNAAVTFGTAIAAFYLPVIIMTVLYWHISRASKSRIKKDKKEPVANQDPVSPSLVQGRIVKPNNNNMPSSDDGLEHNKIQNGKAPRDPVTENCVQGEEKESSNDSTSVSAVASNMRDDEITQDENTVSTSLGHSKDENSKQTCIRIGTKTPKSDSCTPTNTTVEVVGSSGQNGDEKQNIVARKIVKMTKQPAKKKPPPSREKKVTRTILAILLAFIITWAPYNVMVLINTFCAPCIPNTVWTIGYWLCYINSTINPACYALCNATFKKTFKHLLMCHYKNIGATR
Chain of Cannabinoid receptor 2 (Homo sapiens) (P34972 whole entry, looked up): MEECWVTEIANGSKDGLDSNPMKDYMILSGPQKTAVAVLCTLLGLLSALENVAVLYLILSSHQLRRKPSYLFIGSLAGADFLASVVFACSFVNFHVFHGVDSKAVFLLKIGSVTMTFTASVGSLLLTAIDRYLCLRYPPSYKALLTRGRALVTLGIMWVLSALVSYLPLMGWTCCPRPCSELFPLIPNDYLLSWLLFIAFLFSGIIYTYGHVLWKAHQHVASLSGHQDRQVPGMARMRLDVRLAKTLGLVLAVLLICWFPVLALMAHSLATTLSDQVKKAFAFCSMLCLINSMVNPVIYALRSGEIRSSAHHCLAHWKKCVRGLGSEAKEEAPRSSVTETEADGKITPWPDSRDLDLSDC
Chain of Delta-type opioid receptor (Homo sapiens) (P41143 whole entry, looked up): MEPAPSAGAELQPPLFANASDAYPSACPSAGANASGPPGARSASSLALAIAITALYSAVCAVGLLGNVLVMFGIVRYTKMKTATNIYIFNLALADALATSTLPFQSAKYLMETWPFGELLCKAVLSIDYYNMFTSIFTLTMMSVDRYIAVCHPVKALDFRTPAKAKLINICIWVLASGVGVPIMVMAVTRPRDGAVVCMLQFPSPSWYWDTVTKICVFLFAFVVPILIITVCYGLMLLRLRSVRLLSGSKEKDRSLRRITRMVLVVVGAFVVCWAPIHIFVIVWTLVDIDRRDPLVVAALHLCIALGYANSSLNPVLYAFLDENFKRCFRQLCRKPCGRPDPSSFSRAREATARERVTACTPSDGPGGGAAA
Chain of Oxytocin receptor (Homo sapiens) (P30559 whole entry, looked up): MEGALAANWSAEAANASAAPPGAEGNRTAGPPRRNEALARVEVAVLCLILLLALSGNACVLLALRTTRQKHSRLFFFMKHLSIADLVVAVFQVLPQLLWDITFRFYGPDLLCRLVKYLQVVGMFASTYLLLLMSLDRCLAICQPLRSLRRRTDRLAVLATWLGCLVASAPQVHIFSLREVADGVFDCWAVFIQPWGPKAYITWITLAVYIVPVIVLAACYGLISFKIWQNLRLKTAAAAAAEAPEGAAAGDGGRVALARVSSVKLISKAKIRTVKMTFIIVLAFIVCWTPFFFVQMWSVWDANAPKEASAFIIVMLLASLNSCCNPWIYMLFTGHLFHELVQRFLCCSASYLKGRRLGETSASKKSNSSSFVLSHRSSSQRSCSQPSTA
Chain of Alpha-2A adrenergic receptor (Homo sapiens) (P08913 whole entry, looked up): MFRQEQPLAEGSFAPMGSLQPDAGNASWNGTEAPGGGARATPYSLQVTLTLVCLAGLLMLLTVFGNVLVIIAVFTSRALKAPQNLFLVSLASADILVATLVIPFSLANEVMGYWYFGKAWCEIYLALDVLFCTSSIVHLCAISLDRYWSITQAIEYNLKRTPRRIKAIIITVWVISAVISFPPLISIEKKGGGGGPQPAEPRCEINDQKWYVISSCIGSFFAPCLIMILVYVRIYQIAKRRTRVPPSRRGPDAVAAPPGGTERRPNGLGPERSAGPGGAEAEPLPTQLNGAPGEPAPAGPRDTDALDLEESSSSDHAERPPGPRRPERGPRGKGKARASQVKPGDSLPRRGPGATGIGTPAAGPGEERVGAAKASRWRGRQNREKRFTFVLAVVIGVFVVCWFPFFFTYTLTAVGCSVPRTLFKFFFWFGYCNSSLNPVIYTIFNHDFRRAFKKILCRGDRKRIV
Chain of Muscarinic acetylcholine receptor M1 (Homo sapiens) (P11229 whole entry, looked up): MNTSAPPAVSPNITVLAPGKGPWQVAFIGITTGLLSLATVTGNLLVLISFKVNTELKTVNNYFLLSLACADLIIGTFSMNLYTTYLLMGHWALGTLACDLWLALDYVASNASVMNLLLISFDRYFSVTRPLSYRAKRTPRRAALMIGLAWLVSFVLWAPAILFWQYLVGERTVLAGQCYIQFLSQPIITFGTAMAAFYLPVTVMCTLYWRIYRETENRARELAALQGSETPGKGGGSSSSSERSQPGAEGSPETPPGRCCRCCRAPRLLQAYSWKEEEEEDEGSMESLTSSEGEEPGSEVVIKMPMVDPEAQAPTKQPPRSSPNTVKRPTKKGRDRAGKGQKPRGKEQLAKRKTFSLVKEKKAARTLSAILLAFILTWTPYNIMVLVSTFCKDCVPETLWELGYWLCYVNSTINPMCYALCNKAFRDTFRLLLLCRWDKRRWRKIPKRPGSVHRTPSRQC
Chain of Alpha-2B adrenergic receptor (Homo sapiens) (P18089 whole entry, looked up): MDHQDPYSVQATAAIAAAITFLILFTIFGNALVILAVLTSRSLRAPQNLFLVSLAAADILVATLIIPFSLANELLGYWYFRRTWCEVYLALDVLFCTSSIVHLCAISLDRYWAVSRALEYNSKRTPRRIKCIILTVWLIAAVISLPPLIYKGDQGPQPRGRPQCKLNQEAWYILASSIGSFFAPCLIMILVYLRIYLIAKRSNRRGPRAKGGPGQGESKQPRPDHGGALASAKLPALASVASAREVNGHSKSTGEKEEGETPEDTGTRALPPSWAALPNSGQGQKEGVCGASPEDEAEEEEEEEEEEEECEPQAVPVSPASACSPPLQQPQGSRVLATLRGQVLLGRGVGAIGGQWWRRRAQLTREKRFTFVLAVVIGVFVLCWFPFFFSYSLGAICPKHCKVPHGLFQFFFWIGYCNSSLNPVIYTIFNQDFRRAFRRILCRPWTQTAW
Chain of D(1B) dopamine receptor (Homo sapiens) (P21918 whole entry, looked up): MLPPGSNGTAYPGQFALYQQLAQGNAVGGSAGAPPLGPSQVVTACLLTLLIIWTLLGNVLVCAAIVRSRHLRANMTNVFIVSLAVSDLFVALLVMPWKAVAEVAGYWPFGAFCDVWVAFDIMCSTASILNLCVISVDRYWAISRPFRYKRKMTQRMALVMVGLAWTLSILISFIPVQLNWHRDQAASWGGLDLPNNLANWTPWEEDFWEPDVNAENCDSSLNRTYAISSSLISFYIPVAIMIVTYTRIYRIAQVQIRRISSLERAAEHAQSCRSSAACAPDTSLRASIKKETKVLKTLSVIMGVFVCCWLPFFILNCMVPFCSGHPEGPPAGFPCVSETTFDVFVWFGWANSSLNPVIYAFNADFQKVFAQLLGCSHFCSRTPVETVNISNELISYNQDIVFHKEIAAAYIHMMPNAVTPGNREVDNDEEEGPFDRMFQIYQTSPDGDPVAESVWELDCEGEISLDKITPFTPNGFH
Chain of D(1A) dopamine receptor (Homo sapiens) (P21728 whole entry, looked up): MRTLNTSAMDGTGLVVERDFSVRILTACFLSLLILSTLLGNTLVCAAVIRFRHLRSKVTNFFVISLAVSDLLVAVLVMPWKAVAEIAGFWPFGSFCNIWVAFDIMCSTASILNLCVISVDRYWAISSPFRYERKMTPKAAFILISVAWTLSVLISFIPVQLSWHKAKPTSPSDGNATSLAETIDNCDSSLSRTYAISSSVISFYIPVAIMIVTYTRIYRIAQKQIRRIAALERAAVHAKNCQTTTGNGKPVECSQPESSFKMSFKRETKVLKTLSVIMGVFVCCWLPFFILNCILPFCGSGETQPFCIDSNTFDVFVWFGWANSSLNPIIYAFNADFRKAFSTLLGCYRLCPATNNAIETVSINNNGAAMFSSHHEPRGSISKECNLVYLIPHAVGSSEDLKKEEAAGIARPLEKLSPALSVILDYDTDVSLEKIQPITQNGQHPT
Chain of Alpha-2C adrenergic receptor (Homo sapiens) (P18825 whole entry, looked up): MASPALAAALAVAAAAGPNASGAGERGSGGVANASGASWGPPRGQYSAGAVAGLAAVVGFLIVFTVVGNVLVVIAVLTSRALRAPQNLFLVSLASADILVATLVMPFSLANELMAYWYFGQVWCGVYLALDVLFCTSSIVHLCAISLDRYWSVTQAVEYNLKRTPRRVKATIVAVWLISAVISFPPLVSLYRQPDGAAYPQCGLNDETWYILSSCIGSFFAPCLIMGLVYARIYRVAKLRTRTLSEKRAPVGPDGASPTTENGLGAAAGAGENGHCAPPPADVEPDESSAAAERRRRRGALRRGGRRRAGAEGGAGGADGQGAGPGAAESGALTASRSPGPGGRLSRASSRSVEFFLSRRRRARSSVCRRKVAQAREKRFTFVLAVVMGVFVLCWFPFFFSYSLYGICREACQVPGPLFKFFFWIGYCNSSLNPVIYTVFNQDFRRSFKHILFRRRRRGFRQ
Chain of Beta-2 adrenergic receptor (Homo sapiens) (P07550 whole entry, looked up): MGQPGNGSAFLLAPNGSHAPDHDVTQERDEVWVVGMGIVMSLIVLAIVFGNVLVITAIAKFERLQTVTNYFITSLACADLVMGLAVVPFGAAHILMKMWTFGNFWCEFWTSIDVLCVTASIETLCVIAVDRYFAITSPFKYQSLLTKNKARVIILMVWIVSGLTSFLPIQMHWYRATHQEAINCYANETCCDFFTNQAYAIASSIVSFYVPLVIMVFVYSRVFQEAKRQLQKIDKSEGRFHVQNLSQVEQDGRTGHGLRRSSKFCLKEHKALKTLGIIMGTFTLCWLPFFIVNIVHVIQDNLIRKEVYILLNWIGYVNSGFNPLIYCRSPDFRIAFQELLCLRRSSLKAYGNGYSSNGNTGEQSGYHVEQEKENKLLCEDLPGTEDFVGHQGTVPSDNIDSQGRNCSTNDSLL

inhibition (Sigma receptor 1): 50.1% | inhibition (GABA receptor PBR): 32.1% (inactive) | inhibition (Nicotinic receptor A2B2): -4% (inactive) | inhibition (Dopamine receptor D2): 22.6% (inactive) | inhibition [1]: 58.8% | inhibition [2]: 60.5% | inhibition [3]: 22.4% (inactive) | inhibition (Serotonin receptor 5ht5a): 45.6% (inactive) | inhibition [4]: 59.2% | inhibition (GABA receptor GABAa): 25% (inactive) | inhibition [5]: 16.8% (inactive) | inhibition (Nicotinic receptor A4B4): 7% (inactive) | inhibition (Vasopressin receptor V1A): 4% (inactive) | inhibition (Nicotinic receptor A3B4): 0% (inactive) | inhibition (Serotonin receptor 5ht2a): 33.2% (inactive) | inhibition [6]: 45.5% (inactive) | inhibition [7]: 0% (inactive) | inhibition [8]: -0.9% (inactive) | inhibition (Serotonin receptor 5ht1b): 11.3% (inactive) | inhibition (Histamine receptor H3): -2.4% (inactive) | inhibition [9]: 23.8% (inactive) | inhibition [10]: -5.8% (inactive) | inhibition [11]: 16.4% (inactive) | inhibition [12]: 1.1% (inactive) | inhibition (BZP Rat Brain Site): 44.8% (inactive) | inhibition (Serotonin receptor 5ht1a): 34.4% (inactive) | inhibition (Muscarinic receptor M5): 2.3% (inactive) | inhibition (Nicotinic receptor A4B2): 1% (inactive) | inhibition (Opioid receptor MOR): -18% (inactive) | inhibition [13]: 38.4% (inactive) | inhibition (Cannabinoid receptor CB1): 5% (inactive) | inhibition [14]: 38.3% (inactive) | inhibition (Serotonin receptor 5ht1e): 13.1% (inactive) | inhibition (Vasopressin receptor V2): -5.5% (inactive) | inhibition (Nicotinic receptor A3B2): 4% (inactive) | inhibition (Nicotinic receptor A2B4): 4% (inactive) | inhibition (Dopamine receptor D4): 34.7% (inactive) | inhibition (Sigma receptor 2): 9% (inactive) | inhibition (Serotonin receptor 5ht7): -5.7% (inactive) | inhibition (Histamine receptor H1): 46.4% (inactive) | inhibition (Serotonin receptor 5ht3): 1.4% (inactive) | inhibition [15]: 84.3% | inhibition (Histamine receptor H2): 43% (inactive) | inhibition [16]: 36.3% (inactive) | inhibition (Serotonin receptor 5ht1d): 16.1% (inactive) | inhibition (Serotonin receptor 5ht2c): 62.4% | inhibition (Muscarinic receptor M4): 19.3% (inactive) | inhibition [17]: 50.7% | inhibition [18]: 25% (inactive) | inhibition (Ca+ Channel): -19.4% (inactive) | inhibition [19]: 16.3% (inactive) | inhibition [20]: 3.8% (inactive) | inhibition [21]: 16% (inactive) | inhibition (Serotonin receptor 5ht6): 30.8% (inactive) | inhibition [22]: 98.2% | inhibition [23]: 23.6% (inactive) | inhibition (GABA receptor GABAa a1): 16.2% (inactive) | inhibition [24]: -0.5% (inactive) | inhibition [25]: 3.5% (inactive) | inhibition (Histamine receptor H4): 10.1% (inactive) | inhibition (Vasopressin receptor V1B): 8.9% (inactive) | inhibition [26]: 23.5% (inactive)
SMILES: CN1c2ccccc2Sc2cc(N)ccc21
